The text below walks through data of patent publication US20110263478A1, “SUR1 INHIBITORS FOR THERAPY” (priority 2008, published 2011).

Series [1] concerns SUR1. Briefly: SCI with i.v. ODN: SUR1 immunolabeling of cord. It counts as in vivo, rat. The text has this:
For studies with SCI, AS-ODN and Scr-ODN were used that were phosphorothioated at 4 distal bonds to protect against endogenous nucleases (Galderisi et al., 1999), with ODN's administered i.v. starting immediately after injury. […] With Scr-ODN, the necrotic void beneath the impact site was surrounded by an SUR1-positive shell of tissue, similar to observations in untreated animals (FIG. 1a). With AS-ODN, however, only the small volume of tissue immediately beneath the impact site was labeled for SUR1, and no necrotic void was evident (FIG. 5c).
(§1) For in vivo gene suppression of SUR1, we used oligodeoxynucleotides that were phosphorothioated at 4 distal bonds to protect against endogenous nucleases (35). Within a few min of SCI, mini-osmotic pumps (Alzet 2002, 0.5 μl/h; Durect Corporation) with jugular vein catheters were implanted that delivered either scrambled sequence ODN (Scr-ODN) (5′-[…]-3′; SEQ ID NO:1) or antisense ODN (AS-ODN) (5′-[…]-3′; SEQ ID NO:2) (Yokoshiki et al., 1999) in PBS at a rate of 1 mg/rat/24 h.
Immunohistochemistry. […] Quantitative immunofluorescence was performed as described (Gerzanich et al., 2003).

In series [2] the test system is SUR1. Briefly: Gliotic capsule model with ODN infusion: SUR1 Western blot and astrocyte patch clamp. It counts as in vivo, rat. As to the method: To validate the antisense strategy, it was first implemented in the model that was originally used for the discovery of the NCCa-ATP channel, wherein a gelatin sponge is implanted into the parietal lobe to stimulate formation of a gliotic capsule (Chen and Simard, 2001). Here, animals were also fitted with mini-osmotic pumps that delivered oligodeoxynucleotides (ODN), either antisense (AS) or scrambled (Scr), continuously for 7 d into the injury site.
SUR1 knock-down in astrocytes was performed in triplicates by implanting rats with gelatin sponges in the parietal lobe to induce formation of a gliotic capsule containing reactive astrocytes that express the SUR1-regulated NCCa-ATP channel (Chen and Simard, 2001; Chen et al., 2003). At the same time, they were implanted with mini-osmotic pumps (Alzet, model 2002; 14-day pump) placed in the dorsal thoracolumbar region that contained ODN (711 μg/ml delivered @ 0.5 μl/h, yielding 1500 picomoles/day), with the delivery catheter placed directly into the site of the gelatin sponge implant in the brain. Animals were infused with Src-ODN or AS-ODN, as above but not phosphorothioated. After 10-14 days, the gelatin sponge plus encapsulating gliotic tissues were harvested and processed either for Western immunoblots or to obtain fresh reactive astrocytes for patch clamp electrophysiology. […]

Series [3] has as its system rats with spinal cord injury (SCI). Description: Rat cervical SCI model: neurobehavioral assessment (inclined plane, paw placement, rearing). It counts as in vivo. As to the method: (§2) SCI injury model. This study was performed in accordance with the guidelines of the Institutional Animal Care and Use Committee. Adult female Long-Evans rats (275-350 gm) were anesthetized (Ketamine, 60 mg/kg plus Xylazine, 7.5 mg/kg, i.p.). The dura at C4-5 was exposed via a left hemilaminectomy. A hemi-cervical spinal cord contusion was created using a blunt force impactor (1.3-mm impactor head driven by a 10 gm weight dropped vertically 25 mm) (Soblo sky et al., 2001; Gensel et al., 2006). After SCI, animals were given 10 ml of glucose-free normal saline s.q. Rectal temperature was maintained at ˜37° C. using a servo-controlled warming blanket.
For in vivo gene suppression of SUR1, we used oligodeoxynucleotides that were phosphorothioated at 4 distal bonds to protect against endogenous nucleases (35).
Neurobehavioral assessment. All measurements were performed by blinded evaluators. Performance on the inclined plane was evaluated as described (Rivlin and Tator, 1977). To assess paw placement and vertical exploration (rearing) (Nikulina et al., 2004) animals were videotaped while in a translucent cylinder (19×20 cm). Rearing was quantified as the number of seconds spent with both front paws elevated above shoulder-height during a 3-min period of observation.

Series [4] shares this test system. Description: Rat cervical SCI model: hemorrhage / extravasated blood in cord. It counts as in vivo. Conditions: 1 d post-SCI. As to the method: Constant infusion of a low-dose of drug was used to achieve sustained occupancy of only high-affinity receptors.
as §2, with “blanket. Blood gases and serum glucose 10-15 min post-SCI were: pO2, 95±6 mm Hg; pCO2, 46±3 mm Hg; pH, 7.33±0.01; glucose 258±17 mg/dl in controls and pO2, 96±7 mm Hg; pCO2, 45±2 mm Hg; pH, 7.37±0.01; glucose 242±14 mg/dl in glibenclamide-treated animals.” for “blanket.”
(§3) Drug delivery. […] During the course of the project, slightly different formulations of drug were used, with the best results obtained using stock solutions made by placing 50 mg (or 25 mg) of drug into 10 ml DMSO, and infusion solutions made by placing 400 μl (or 800 μl) stock into 4.6 ml (or 4.2 ml) unbuffered saline (0.9% NaCl) and adjusting the pH to ˜8.5 using 0.1 N NaOH.
as §1
Tissue blood. Rats were sacrificed at various times after SCI (n=5-11 rats/group), were perfused with heparinized saline to remove intravascular blood, and 5-mm segments of cord encompassing the lesion were homogenized and processed as described (Choudhri et al., 1997).

Series [5] shares this test system. Description: Rat cervical SCI model: histology, capillaries and lesion size. It counts as in vivo. As to conditions: 7 d post-SCI. As to the method:
as §2, with “blanket. Blood gases and serum glucose 10-15 min post-SCI were: pO2, 95±6 mm Hg; pCO2, 46±3 mm Hg; pH, 7.33±0.01; glucose 258±17 mg/dl in controls and pO2, 96±7 mm Hg; pCO2, 45±2 mm Hg; pH, 7.37±0.01; glucose 242±14 mg/dl in glibenclamide-treated animals.” for “blanket.”
as §3
Lesion size. At 7 d post-SCI, cords were paraffin sectioned and stained with H&E. Lesion volumes were calculated from lesion areas measured on serial sections every 250 μm.
Immunohistochemistry. Cryosections were immunolabeled (Chen et al., 2003; Simard et al., 2006) using primary antibodies directed against SUR1 (Santa Cruz, C-16; 1:200; 1 h at RT, 48 h at 4° C.), SUR2 (Santa Cruz, H-80; 1:200; 1 h at RT, 48 h at 4° C.), GFAP (Sigma, C-9205; 1:500), and vimentin (Sigma, monoclonal CY3 conjugated; 1:100). Quantitative immunofluorescence was performed as described (Gerzanich et al., 2003).

In series [6] the target is SUR1-regulated NCCa-ATP channels (Rattus norvegicus, UniProt Q09429). As to conditions: read-out: EC50, block of SUR1-regulated NCCa-ATP channel; cited from earlier work.
Series [7] has as its system SUR-regulated channels (KATP / NCCa-ATP) in human aortic endothelial cells. Description: Nystatin-perforated patch clamp, diazoxide activation in endothelial cells cultured under normoxic or hypoxic conditions. It counts as cell-based. As to conditions: endothelial cells cultured under normoxic conditions. As for the experimental part:
(§4) Patch clamp of endothelial cells was performed using a nystatin-perforated patch technique, to maintain the metabolic integrity of the cells. The identity of the activated channel can be assessed by measurement of the “reversal potential”, the potential at which an ion channel current reverses from inward to outward. With physiologically relevant concentrations of ions intracellularly and extracellularly (high potassium inside, high sodium outside), the reversal potential can unambiguously distinguish between a K^+ channel current such as KATP, which reverses negative to −50 mV and a non-selective cation channel current such as NCCa-ATP, which reverses near 0 mV.
(§5) Cell culture. Endothelial cell cultures from human brain microvessels, human aorta (ScienCell Research Laboratories), and murine brain microvessels (bEnd.3; ATCC), were grown at low density using media and supplements recommended by suppliers.
(In patch-clamp work, channel activity is measured electrically.)

For series [8], the target named is T1, SUR-regulated channels (KATP / NCCa-ATP) in human aortic endothelial cells (Homo sapiens, UniProt Q09428).
T1 construct: host or cells: human aortic endothelial cells, cultured under normoxic or hypoxic conditions
The series is described as above. It counts as cell-based. Conditions: most endothelial cells cultured under hypoxic conditions. As for the experimental part: as §4, §5

The target of series [9] is native and recombinant β-cell KATP channels (Homo sapiens, UniProt Q09428). Conditions: read-out: IC50, block of β-cell KATP channels; cited from earlier work.
For series [10], the system named is rAbcc8 promoter / NFκB consensus sequences. Description: Luciferase reporter assay in HeLa cells. It counts as cell-based. Conditions: 20 ng/ml. As for the experimental part: Luciferase reporter assay. TNFα-stimulated activity of the promoter region of Abcc8 was determined using luciferase reporter plasmids as previously described. HeLa cells were transfected with luciferase reporter plasmids containing the rAbcc8 promoter (−3853 to +125) or four tandem NFκB consensus sequences (Clonetech, Mountain View, Calif.) using Lipofectamine-2000 (Invitrogen). Co-transfection of pRL-CMV, Renilla luciferase expression plasmid served as a control for transfection efficiency. The luciferase activity of cell extracts was determined using the Dual Luciferase system from Promega.

Series [11] deals with Abcc8 mRNA and SUR1 protein in bEnd.3 cells. Briefly: TNFα exposure of bEnd.3 cells: RT-PCR and immunoblot for Abcc8 / SUR1. It counts as cell-based, murine. As to conditions: 6-hr exposure, 20 ng/ml. As to the method: Immunoblot. Lysates of inferomedial cortex, or of cultured bEnd.3 cells (ATCC, Monassas, Va.) that had been exposed to TNFα (20 ng/ml) for 6 hr, were prepared by homogenizing in RIPA lysis buffer. SUR1 was immunoisolated using a custom antibody raised against amino acids 598-965 (Protein Id, NP_037171) in rabbits by a commercial service (Covance, Denver, Pa.). This custom antibody was used to immunoisolate SUR1 using standard techniques, following which immunoisolated SUR1 was run on electrophoretic gels (NuPAGE® 4-12% Bis-Tris gels; Novex, Invitrogen, Carlsbad, Calif.). SUR1 was detected using the same custom antibody. Membranes were stripped and re-blotted for β-actin (1:5000; Sigma), which was used as a loading control. Detection was carried out using the ECL system (Amersham BioTBIences, Inc.) with routine imaging (Fuji LAS-3000) and quantification (Scion Image, Scion Corp, Frederick, Md.).
RT-PCR. bEnd.3 cells were exposed to TNFα (20 ng/ml) for 6 hr. RNA was extracted with TRIzol reagent (Invitrogen). RT-PCR was performed using Reverse Transcription System (Promega). The target transcript was reverse transcribed at RT for 10 min, then incubated at 42° C. for 15 min. The cDNA was amplified using 35 cycles under the following conditions: 94° C. for 30 sec; 57° C. for 45 sec; 72° C. for 45 sec. […] RT-PCR products (449 bp) were analyzed using 2.0% agarose/EtBr gel electrophoresis.
(In general: Immunoblotting shows a protein as a band on a membrane.)

Where [12] appears, read: 1 d post-SCI, ODN i.v., vs Scr-ODN.

Usually EC50 stands for the concentration at which the effect is half-maximal. For orientation: IC50 means the midpoint of a concentration-inhibition curve.

T1 sequence (Q09428 whole entry): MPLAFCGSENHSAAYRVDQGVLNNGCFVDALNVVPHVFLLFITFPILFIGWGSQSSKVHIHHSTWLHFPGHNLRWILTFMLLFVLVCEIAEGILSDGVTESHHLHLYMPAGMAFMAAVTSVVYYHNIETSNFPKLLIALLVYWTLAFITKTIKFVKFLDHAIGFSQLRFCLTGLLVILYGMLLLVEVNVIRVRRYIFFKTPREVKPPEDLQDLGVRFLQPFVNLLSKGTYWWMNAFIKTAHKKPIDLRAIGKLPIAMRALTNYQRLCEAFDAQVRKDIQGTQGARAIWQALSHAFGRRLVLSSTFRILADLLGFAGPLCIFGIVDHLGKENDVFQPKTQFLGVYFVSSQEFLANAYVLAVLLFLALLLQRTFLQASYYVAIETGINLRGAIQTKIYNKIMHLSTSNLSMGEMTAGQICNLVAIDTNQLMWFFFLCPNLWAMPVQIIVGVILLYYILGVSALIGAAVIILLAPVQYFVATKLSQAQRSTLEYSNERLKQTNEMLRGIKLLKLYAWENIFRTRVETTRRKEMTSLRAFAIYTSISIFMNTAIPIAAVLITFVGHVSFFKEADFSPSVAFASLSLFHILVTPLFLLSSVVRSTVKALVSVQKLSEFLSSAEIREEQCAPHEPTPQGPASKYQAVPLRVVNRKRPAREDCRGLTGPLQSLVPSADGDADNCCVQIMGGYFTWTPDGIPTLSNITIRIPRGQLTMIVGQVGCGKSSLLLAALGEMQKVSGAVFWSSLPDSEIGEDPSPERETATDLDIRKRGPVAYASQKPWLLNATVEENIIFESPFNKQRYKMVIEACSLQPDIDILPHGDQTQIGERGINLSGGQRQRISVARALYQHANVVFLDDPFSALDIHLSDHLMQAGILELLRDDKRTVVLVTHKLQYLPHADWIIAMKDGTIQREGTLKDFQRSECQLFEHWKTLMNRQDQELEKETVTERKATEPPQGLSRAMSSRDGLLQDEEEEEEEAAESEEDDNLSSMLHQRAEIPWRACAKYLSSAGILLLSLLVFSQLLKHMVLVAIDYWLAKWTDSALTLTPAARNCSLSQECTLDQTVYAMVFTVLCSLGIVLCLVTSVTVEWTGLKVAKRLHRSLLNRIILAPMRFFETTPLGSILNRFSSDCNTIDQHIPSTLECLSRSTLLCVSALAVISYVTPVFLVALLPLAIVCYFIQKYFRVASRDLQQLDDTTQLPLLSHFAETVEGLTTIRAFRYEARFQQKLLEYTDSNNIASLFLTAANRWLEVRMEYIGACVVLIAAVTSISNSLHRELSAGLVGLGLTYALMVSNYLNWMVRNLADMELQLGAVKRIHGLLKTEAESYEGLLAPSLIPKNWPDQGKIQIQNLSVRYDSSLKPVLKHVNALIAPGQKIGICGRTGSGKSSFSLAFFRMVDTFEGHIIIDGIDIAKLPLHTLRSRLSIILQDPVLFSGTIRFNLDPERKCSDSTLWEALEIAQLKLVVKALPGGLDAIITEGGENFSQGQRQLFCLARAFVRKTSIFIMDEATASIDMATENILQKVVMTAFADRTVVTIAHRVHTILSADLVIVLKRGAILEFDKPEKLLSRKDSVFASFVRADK
native and recombinant β-cell KATP channels, sequence (Q09428 whole entry): as above
native and recombinant β-cell KATP channels, sequence (Q14654 whole entry partner): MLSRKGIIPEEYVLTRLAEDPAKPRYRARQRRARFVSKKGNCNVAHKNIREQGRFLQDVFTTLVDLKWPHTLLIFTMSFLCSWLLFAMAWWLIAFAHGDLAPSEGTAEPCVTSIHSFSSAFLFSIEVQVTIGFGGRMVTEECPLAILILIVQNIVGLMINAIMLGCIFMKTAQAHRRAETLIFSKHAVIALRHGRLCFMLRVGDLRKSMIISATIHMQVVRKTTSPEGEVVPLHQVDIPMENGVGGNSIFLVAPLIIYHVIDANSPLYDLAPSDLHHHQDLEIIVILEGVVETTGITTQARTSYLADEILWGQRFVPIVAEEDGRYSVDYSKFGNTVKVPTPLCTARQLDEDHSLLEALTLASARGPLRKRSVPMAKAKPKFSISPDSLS
SUR1-regulated NCCa-ATP channels, sequence (Q09429 whole entry): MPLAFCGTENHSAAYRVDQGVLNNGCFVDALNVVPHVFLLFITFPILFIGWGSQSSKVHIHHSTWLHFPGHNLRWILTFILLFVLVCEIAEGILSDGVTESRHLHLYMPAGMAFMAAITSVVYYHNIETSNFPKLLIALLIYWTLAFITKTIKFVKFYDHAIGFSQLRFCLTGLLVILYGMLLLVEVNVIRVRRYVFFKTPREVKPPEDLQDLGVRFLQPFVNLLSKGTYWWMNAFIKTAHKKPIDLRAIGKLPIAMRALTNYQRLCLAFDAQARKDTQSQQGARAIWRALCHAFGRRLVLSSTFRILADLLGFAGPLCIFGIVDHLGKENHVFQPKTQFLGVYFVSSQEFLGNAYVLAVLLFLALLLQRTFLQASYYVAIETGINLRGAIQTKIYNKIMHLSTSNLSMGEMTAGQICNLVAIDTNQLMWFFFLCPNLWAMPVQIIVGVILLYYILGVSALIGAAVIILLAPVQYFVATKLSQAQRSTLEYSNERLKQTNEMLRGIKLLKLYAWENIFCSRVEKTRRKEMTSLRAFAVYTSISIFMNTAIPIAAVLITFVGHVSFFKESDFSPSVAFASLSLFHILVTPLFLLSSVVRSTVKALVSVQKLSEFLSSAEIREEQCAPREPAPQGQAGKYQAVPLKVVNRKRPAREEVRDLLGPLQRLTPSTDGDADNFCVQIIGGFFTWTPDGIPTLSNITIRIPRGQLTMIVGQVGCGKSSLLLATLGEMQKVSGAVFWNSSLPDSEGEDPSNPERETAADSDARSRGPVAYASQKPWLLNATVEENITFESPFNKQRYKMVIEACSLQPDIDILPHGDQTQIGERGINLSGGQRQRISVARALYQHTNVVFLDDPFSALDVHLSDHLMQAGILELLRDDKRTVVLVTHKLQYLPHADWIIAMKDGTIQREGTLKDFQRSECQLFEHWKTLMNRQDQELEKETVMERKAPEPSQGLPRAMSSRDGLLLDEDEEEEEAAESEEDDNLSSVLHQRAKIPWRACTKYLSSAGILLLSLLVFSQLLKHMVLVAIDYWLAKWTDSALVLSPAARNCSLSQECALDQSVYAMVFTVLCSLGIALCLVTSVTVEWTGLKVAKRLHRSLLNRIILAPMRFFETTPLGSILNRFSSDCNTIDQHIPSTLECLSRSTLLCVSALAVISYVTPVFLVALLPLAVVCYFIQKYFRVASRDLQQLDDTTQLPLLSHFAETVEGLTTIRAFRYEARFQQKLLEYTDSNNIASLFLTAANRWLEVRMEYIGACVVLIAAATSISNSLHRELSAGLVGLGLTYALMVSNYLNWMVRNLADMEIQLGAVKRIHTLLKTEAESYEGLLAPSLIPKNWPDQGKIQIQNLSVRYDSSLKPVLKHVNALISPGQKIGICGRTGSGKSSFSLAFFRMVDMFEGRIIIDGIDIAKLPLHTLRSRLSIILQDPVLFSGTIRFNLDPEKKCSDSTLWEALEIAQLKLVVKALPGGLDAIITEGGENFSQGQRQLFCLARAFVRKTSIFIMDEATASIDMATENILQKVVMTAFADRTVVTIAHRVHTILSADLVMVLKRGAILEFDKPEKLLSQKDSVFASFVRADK
SUR1-regulated NCCa-ATP channels, sequence (Q9ESQ5 whole entry partner): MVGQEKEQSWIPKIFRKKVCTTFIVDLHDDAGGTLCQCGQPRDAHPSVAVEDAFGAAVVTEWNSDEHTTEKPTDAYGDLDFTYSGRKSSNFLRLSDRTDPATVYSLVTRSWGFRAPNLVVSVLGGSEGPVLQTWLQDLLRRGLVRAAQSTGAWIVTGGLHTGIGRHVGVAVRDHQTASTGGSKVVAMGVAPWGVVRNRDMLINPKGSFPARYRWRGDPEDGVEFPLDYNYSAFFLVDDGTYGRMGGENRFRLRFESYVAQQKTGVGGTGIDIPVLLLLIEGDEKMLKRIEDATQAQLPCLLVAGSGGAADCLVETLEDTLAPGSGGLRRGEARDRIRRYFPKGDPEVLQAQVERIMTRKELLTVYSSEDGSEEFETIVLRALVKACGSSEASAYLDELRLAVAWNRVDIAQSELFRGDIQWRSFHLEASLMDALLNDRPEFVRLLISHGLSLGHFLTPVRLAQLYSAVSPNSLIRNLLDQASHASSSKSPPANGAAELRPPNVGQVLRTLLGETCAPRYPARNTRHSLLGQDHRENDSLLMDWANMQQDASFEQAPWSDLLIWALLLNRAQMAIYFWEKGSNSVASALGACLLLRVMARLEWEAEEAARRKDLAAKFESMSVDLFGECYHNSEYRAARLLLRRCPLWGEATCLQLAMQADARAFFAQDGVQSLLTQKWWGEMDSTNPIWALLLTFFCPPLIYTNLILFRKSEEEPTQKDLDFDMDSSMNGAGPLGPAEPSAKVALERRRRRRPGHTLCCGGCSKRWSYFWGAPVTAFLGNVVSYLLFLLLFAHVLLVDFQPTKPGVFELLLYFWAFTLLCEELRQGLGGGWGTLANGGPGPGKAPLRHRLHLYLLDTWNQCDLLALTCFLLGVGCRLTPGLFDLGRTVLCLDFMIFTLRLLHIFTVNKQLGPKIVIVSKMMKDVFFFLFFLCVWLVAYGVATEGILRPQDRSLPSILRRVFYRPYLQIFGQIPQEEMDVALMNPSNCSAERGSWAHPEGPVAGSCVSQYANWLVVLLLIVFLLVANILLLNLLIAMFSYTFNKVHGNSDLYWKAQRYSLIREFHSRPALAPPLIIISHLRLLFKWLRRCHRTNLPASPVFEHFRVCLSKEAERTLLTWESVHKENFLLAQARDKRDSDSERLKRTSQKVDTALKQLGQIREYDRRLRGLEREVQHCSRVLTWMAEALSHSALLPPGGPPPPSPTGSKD

In the case of “5′-GGCCGAGTGGTTCTCGGT-3′ (DNA, backbone not given here; phosphorothioate at four distal bonds) [AS-ODN]”, the “immunolabeling for SUR1 in cord” value in the series with SUR1 [1] (6 h post-SCI, ODN i.v. 1 mg/rat/24 h, vs controls) is “significantly less immunolabeling for SUR1”. Besides, the “normal expression of SUR1 in dorsal horn cells” value in the series on SUR1 [1] (post-SCI, ODN i.v.) is recorded as “did not affect”. Besides, the “SUR1 protein in gliotic capsule (Western blot)” value in the series on SUR1 [2] (ODN infused into injury site, vs Scr-ODN) is “significant reduction in SUR1 protein”. For the same compound, the “depolarization of gliotic capsule astrocytes on ATP depletion by Na azide” value with SUR1 [2] (vs Scr-ODN (rapidly depolarized)) is reported as “depolarized only slightly or not at all”. Also, in [3] (setting [12]), the “performance on inclined plane” value is given as “significantly better performance” and the vertical exploration result is “significantly better performance”. For the same compound, in [4] (ODN i.v., vs Scr-ODN), the “blood in cord homogenates” value is on record as “reduced blood in cord homogenates”. In series [5], the “lesion volume, reduction compared to controls” value is reported as 3 fold.

In the case of `Nc1ncnc2c1ncn2[C@@H]1O[C@H](COP(=O)(O)OP(=O)(O)OP(=O)(O)O)[C@@H](O)[C@H]1O` [ATP], the EC50 in [6] is 790 nM.

Take `CC1=NS(=O)(=O)c2cc(Cl)ccc2N1` [diazoxide]: the “whole-cell current response to diazoxide” value in [7] is “either had no effect or, in half of the cells, activated an outwardly rectifying current that reversed at potentials more negative than −50 mV”; in [8] it was “activated an ohmic current that reversed near 0 mV”.

Regarding `CCOc1cc(CC(=O)N[C@@H](CC(C)C)c2ccccc2N2CCCCC2)ccc1C(=O)O` [repaglinide], in series [9], the IC50 is 0.9 to 7 nM. Moreover, the “vertical exploration (rearing), time during 3-min observation” value in [3] (1 d post-SCI, 200 ng/h s.q.) was determined as 27 ± 6 s. Also, in series [3] (post-SCI, vehicle 29±4, P=0.03), the “inclined plane, head down” value is 47±3 degrees. The “inclined plane, head up” value in series [3] (post-SCI, vehicle 40±4, P=0.01) was 62±2 degrees. For the same compound, the “blood in cord homogenates” value in series [4] (vehicle 1.8±0.2, P<0.01) was found to be 1.2 ± 0.1 µL. The “lesion volume, reduction compared to controls” value in [5] was 3 fold.

Turning to TNFα, in series [10], the “activity of rAbcc8 promoter, increase” value is about 2 fold and the “luciferase activity driven by NFκB binding sites, stimulation” value was about 2.3 fold. Also, the “Abcc8 mRNA and SUR1 protein” value in series [11] is “both increased”.
